Assay results: ChEMBL document CHEMBL1909046, “DrugMatrix in vitro pharmacology data”
pIC50, pKi: −log10 of the molar value.

Columns and labels:
[1] = DRUGMATRIX: Sodium/nucleoside co-transporter radioligand binding (ligand: nitrobenzylthioinosine); type: cell membranes, Cavia porcellus, Dunkin-Hartley, Cerebral cortex, Membrane; conditions: Not Active = under 50% inhibition at 10 µM
[2] = biological target: T1, Type-2 angiotensin II receptor (Homo sapiens, UniProt P50052); type: cell-based; conditions: cho-k1; also: in other assays of this panel Not Active means under 50% inhibition at 10 µM
T1 sequence (P50052 whole entry): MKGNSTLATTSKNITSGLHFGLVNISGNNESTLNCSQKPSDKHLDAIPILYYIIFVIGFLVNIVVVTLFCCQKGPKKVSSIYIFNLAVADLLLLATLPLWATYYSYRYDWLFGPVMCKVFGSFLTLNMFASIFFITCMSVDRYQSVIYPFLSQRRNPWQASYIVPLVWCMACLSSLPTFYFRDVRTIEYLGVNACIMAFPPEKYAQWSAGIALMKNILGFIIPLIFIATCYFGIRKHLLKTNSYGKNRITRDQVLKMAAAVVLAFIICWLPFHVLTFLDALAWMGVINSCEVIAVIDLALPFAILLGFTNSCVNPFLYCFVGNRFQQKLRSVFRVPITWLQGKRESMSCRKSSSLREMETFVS

[3] = DRUGMATRIX: ATPase, Na+/K+ enzyme inhibition (substrate: ATP); type: tissue-based, Sus scrofa, Heart; conditions: Not Active = under 50% inhibition at 10 µM
Substance-K receptor = biological target: T2, Substance-K receptor (Homo sapiens, UniProt P21452); type: cell membranes, CHO, Membrane; conditions: cho; also: in other assays of this panel Not Active means under 50% inhibition at 10 µM
T2 sequence (P21452 whole entry): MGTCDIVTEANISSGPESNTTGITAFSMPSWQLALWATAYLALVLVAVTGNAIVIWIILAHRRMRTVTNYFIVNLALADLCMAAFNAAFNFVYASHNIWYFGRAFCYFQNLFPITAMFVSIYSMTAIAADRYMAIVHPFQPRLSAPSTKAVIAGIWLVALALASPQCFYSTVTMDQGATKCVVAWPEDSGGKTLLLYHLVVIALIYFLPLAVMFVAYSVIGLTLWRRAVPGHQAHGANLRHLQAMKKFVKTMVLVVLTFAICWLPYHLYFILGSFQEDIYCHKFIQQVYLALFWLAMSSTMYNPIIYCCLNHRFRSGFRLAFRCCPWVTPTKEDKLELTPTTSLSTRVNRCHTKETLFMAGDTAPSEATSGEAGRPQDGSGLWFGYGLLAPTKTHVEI

[4] = biological target: Vascular endothelial growth factor receptor 1 (Homo sapiens, UniProt P17948); type: cell-based; conditions: huvec; also: in other assays of this panel Not Active means under 50% inhibition at 10 µM
Vasopressin V1a receptor = Vasopressin V1a receptor (Homo sapiens, UniProt P37288); type: cell membranes, Membrane; conditions: hek293; also: in other assays of this panel Not Active means under 50% inhibition at 10 µM
Cannabinoid receptor 1 = Cannabinoid receptor 1 (Homo sapiens, UniProt P21554); type: cell membranes, Membrane; conditions: chem-1; also: in other assays of this panel Not Active means under 50% inhibition at 10 µM
[5] = biological target: C-C chemokine receptor type 5 (Homo sapiens, UniProt P51681); type: cell membranes, Membrane; conditions: hek293; also: in other assays of this panel Not Active means under 50% inhibition at 10 µM
D(4) dopamine receptor = biological target: T3, D(4) dopamine receptor (Homo sapiens, UniProt P21917); experiment: DRUGMATRIX: Dopamine D4.2 radioligand binding (ligand: [3H] Spiperone); type: cell membranes, CHO-K1, Membrane; conditions: cho-k1; Not Active = under 50% inhibition at 10 µM
T3 sequence (P21917 whole entry): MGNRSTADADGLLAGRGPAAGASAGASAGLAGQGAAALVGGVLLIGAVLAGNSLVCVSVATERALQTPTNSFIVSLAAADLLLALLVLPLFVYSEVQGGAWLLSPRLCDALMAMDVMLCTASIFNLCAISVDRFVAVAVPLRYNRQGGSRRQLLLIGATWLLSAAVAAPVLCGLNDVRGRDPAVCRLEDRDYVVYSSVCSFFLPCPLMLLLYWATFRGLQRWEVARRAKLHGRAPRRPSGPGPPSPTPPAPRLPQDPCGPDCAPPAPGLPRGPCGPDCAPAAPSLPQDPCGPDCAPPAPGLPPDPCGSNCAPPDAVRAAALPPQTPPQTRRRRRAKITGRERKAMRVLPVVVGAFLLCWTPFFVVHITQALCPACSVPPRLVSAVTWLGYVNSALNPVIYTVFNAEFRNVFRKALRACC

[6] = DRUGMATRIX: GABAA, Muscimol, Central radioligand binding (ligand: [3H] Muscimol); type: cell membranes, Rattus norvegicus, Wistar, Brain, Membrane; conditions: Not Active = under 50% inhibition at 10 µM
Histamine H2 receptor = Histamine H2 receptor (Homo sapiens, UniProt P25021); type: cell membranes, CHO-K1, Membrane; conditions: cho-k1; also: in other assays of this panel Not Active means under 50% inhibition at 10 µM
[7] = DRUGMATRIX: Imidazoline I2, Central radioligand binding (ligand: [3H] Idazoxan); type: cell membranes, Rattus norvegicus, Wistar, Cerebral cortex, Membrane; conditions: Not Active = under 50% inhibition at 10 µM
[8] = biological target: T4, Cysteinyl leukotriene receptor 1 (Homo sapiens, UniProt Q9Y271); type: cell membranes, CHO-K1, Membrane; conditions: cho-k1; also: in other assays of this panel Not Active means under 50% inhibition at 10 µM
T4 sequence (Q9Y271 whole entry): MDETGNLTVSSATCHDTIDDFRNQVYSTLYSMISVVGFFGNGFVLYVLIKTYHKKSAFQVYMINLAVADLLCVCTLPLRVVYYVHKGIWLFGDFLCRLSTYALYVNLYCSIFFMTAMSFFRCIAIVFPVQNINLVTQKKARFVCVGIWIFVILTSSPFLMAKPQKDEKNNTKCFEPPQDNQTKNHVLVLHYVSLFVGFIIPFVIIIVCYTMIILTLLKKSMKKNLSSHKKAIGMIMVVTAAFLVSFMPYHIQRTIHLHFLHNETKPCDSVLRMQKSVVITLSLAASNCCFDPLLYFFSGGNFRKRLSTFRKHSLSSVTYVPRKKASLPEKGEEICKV

Nitric oxide synthase 1 = Nitric oxide synthase 1 (Rattus norvegicus, UniProt P29476); type: tissue-based, Cerebellum; also: in other assays of this panel Not Active means under 50% inhibition at 10 µM
[9] = biological target: Platelet-activating factor receptor (Homo sapiens, UniProt P25105); experiment: biochemical; type: tissue-based; conditions: platelet; also: in other assays of this panel Not Active means under 50% inhibition at 10 µM
[10] = biological target: Mitogen-activated protein kinase 3 (Homo sapiens, UniProt P27361); experiment: DRUGMATRIX: Protein Serine/Threonine Kinase, ERK1 enzyme inhibition (substrate: Myelin Basic Protein); parameters: species or system Escherichia coli; conditions: Not Active = under 50% inhibition at 10 µM
Adenosine receptor A3 = biological target: T5, Adenosine receptor A3 (Homo sapiens, UniProt P0DMS8); type: cell membranes, CHO-K1, Membrane; conditions: cho-k1
T5 sequence (P0DMS8 whole entry): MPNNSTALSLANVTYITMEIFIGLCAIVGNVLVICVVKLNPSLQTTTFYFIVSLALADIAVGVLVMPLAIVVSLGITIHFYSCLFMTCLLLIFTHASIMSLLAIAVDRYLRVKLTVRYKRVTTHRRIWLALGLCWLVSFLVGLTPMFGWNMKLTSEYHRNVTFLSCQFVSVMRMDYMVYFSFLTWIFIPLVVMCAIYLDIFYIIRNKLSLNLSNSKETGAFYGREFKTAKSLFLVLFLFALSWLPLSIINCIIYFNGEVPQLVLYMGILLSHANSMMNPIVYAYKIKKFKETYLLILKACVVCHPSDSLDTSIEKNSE

Cytochrome P450 2E1 = Cytochrome P450 2E1 (Homo sapiens, UniProt P05181); conditions: bti-tn-5b1-4; also: in other assays of this panel Not Active means under 50% inhibition at 10 µM
Chain of Cytochrome P450 2E1 (P05181 whole entry): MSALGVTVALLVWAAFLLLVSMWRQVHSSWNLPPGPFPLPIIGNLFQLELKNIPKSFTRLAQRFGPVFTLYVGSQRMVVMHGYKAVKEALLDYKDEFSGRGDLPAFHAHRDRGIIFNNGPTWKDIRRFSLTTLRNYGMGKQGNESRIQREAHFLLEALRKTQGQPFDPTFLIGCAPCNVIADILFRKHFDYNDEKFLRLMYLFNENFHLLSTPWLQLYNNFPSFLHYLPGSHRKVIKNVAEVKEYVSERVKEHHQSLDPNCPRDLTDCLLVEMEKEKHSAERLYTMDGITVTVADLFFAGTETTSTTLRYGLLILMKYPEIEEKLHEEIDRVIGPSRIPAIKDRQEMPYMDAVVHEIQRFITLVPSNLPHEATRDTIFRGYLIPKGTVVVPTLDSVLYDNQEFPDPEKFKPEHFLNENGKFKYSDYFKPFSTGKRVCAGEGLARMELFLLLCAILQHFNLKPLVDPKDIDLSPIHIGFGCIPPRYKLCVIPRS

Chain of Cannabinoid receptor 1 (P21554 whole entry): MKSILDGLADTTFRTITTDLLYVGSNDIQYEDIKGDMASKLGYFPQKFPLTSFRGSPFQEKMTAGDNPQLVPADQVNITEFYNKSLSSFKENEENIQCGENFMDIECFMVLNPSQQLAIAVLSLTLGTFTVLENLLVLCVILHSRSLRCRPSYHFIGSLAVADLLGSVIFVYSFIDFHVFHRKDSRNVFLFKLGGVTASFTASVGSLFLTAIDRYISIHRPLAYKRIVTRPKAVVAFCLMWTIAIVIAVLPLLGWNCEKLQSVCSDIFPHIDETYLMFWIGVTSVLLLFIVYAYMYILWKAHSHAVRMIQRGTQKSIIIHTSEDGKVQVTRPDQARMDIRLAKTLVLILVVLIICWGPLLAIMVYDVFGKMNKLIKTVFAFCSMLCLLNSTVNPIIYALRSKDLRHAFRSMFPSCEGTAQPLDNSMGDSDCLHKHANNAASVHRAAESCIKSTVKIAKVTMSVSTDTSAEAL
Chain of Vascular endothelial growth factor receptor 1 (P17948 whole entry): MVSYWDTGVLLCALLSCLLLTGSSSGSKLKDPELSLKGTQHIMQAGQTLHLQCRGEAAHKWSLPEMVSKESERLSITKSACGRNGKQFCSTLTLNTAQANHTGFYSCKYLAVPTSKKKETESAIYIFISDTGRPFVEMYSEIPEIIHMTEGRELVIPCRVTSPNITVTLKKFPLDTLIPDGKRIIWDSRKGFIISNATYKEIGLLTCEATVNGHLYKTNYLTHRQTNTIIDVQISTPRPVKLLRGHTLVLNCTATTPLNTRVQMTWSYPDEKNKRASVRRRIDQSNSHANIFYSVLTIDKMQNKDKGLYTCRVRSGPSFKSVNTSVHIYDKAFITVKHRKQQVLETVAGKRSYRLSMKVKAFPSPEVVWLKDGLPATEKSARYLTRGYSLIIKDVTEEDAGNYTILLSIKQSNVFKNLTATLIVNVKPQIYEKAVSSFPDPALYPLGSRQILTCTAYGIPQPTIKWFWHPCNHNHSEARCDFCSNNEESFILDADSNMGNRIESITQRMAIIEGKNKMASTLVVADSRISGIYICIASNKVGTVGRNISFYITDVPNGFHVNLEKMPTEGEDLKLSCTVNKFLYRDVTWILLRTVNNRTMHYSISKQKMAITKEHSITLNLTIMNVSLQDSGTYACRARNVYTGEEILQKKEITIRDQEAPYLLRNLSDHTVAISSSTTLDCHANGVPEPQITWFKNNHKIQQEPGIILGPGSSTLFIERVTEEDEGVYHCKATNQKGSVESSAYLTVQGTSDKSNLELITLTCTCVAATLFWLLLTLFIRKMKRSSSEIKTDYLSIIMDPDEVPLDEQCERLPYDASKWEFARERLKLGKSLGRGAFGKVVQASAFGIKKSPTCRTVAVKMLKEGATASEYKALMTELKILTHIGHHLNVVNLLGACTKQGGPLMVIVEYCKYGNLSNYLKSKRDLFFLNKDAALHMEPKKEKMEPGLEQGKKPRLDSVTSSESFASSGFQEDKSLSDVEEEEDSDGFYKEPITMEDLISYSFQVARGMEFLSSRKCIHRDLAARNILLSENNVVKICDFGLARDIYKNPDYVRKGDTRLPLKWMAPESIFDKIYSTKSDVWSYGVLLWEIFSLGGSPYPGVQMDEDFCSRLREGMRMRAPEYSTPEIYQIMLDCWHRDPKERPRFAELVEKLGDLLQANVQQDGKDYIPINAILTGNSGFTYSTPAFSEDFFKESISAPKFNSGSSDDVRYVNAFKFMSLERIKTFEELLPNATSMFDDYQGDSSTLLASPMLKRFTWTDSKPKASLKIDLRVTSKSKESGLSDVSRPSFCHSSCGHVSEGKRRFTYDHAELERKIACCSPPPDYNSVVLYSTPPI
Chain of Mitogen-activated protein kinase 3 (P27361 whole entry): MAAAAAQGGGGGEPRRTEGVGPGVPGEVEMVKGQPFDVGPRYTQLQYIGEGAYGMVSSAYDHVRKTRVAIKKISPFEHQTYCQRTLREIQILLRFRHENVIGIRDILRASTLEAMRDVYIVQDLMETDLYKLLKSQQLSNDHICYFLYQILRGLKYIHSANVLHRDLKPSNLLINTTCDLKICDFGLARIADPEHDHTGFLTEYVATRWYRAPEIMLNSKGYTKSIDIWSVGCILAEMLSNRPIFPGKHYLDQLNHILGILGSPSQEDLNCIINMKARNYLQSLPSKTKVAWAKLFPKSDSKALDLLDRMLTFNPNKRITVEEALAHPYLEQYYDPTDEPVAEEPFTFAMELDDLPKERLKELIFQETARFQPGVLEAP
Chain of C-C chemokine receptor type 5 (P51681 whole entry): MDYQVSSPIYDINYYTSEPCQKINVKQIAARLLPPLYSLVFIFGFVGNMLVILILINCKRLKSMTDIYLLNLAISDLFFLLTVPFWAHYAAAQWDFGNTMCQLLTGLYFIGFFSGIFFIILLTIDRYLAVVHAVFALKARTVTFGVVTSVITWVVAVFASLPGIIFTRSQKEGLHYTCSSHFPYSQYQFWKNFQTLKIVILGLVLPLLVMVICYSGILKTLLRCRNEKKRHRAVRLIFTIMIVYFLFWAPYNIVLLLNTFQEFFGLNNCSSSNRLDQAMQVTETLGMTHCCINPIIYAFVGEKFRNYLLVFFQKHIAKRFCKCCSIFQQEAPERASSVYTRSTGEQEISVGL
Chain of Vasopressin V1a receptor (P37288 whole entry): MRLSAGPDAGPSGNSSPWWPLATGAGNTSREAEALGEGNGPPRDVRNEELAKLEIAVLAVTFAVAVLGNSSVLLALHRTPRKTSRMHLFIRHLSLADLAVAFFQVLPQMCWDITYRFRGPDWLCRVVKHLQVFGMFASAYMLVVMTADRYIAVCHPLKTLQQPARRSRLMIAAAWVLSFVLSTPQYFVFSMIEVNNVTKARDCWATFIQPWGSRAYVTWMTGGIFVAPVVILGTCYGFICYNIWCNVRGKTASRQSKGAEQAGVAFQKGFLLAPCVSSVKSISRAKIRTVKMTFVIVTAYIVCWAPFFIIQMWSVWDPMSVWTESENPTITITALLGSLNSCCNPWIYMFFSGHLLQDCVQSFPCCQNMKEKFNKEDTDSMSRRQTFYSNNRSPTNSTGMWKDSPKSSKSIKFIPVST
Chain of Nitric oxide synthase 1 (P29476 whole entry): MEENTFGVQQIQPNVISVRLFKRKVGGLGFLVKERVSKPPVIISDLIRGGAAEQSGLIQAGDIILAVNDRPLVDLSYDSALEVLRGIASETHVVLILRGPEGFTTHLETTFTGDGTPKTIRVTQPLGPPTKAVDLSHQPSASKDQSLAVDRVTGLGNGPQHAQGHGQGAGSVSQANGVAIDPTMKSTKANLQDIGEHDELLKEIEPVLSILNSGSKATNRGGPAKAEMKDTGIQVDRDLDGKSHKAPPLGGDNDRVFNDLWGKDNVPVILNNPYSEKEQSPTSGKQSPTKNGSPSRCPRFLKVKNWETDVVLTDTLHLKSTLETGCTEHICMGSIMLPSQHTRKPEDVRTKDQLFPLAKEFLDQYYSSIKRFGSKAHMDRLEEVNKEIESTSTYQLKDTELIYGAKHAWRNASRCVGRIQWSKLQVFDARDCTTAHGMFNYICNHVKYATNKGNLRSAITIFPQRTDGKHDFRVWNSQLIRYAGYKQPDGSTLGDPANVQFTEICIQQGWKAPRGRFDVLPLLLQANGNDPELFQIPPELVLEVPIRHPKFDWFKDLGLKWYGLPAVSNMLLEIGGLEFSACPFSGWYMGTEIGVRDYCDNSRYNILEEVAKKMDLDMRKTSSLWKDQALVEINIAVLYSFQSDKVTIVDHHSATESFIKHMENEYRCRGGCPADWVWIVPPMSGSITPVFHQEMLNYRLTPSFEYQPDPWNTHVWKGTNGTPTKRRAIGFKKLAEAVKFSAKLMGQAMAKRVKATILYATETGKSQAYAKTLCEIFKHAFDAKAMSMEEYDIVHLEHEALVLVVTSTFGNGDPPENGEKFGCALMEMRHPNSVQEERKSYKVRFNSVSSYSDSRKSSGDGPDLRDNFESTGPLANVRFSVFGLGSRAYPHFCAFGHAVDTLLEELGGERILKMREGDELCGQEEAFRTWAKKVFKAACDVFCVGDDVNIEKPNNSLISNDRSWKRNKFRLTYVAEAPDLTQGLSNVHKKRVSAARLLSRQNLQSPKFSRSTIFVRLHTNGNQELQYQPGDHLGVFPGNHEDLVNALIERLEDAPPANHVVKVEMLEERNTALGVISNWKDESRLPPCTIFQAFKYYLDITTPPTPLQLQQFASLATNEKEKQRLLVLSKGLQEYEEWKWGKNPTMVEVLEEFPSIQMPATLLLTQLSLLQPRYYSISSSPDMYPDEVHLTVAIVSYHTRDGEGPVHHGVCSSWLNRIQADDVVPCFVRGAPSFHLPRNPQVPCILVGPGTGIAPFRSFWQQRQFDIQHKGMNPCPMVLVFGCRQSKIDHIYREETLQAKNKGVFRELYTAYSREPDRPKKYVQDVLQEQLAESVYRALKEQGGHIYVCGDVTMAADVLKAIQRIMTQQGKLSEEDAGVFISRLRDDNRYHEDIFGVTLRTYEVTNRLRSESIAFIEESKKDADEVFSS

| Molecule | IC50 [1] | Ki [1] | IC50 [2] | IC50 [3] | Ki [3] | IC50 (Substance-K receptor) | IC50 [4] | IC50 (Vasopressin V1a receptor) | IC50 (Cannabinoid receptor 1) | IC50 [5] | IC50 (D(4) dopamine receptor) | IC50 [6] | Ki [6] | IC50 (Histamine H2 receptor) | IC50 [7] | Ki [7] | IC50 [8] | IC50 (Nitric oxide synthase 1) | IC50 [9] | IC50 [10] | also measured |
| --- | --- | --- | --- | --- | --- | --- | --- | --- | --- | --- | --- | --- | --- | --- | --- | --- | --- | --- | --- | --- | --- |
| COc1ccc(C(CN(C)C)C2(O)CCCCC2)cc1 (centres undefined) [VENLAFAXINE] | Not Active | Not Active | Not Active | Not Active | Not Active | Not Active | Not Active | Not Active | Not Active | Not Active | Not Active | Not Active | Not Active | Not Active | Not Active | Not Active | Not Active | Not Active | Not Active | Not Active | IC50 (Adenosine receptor A3): Not Active; IC50 (Cytochrome P450 2E1): Not Active; Ki (Cytochrome P450 2E1): Not Active |
| IVERMECTIN | Not Active | Not Active | Not Active | Not Active | Not Active | Not Active | Not Active | Not Active | Not Active | Not Active | Not Active | Not Active | Not Active | Not Active | Not Active | Not Active | Not Active | Not Active | Not Active | Not Active | Ki [2]: Not Active; Ki (Substance-K receptor): Not Active; Ki [4]: Not Active; Ki (Vasopressin V1a receptor): Not Active; Ki (Cannabinoid receptor 1): Not Active; Ki [5]: Not Active; Ki (D(4) dopamine receptor): Not Active; Ki (Histamine H2 receptor): Not Active; Ki [8]: Not Active; Ki (Nitric oxide synthase 1): Not Active; Ki [9]: Not Active; Ki [10]: Not Active; pIC50 (Adenosine receptor A3; read-out: IC50): 6.29; pKi (Adenosine receptor A3; read-out: Ki): 6.54; IC50 (Cytochrome P450 2E1): Not Active; Ki (Cytochrome P450 2E1): Not Active |
